Assay results from publication PMC2634962, “Poisoning Pyridoxal 5-Phosphate-Dependent Enzymes: A New Strategy to Target the Malaria Parasite Plasmodium falciparum” (PLoS ONE, 2009).

Legend:
[1] = target: T1, PfPdxK (pyridoxine/pyridoxal kinase) (Plasmodium falciparum, UniProt C6KT01); test: kinase assay with [γ-33P]-ATP, recombinant purified PfPdxK, specific activity; assay type: biochemical
T1 construct: gene PF3D7_0616000; recombinant, strep tag

[2] = target: T2, PfODC (bifunctional P. falciparum AdoMetDC/ODC) (Plasmodium falciparum, UniProt Q8IJ77); test: […]CO2 release from […]-L-ornithine by recombinant PfODC/AdoMetDC with […] PLP; assay type: biochemical; conditions: read-out: Inhibition of PfODC activity IC50-value [μM] ^a)
T2 construct: gene PF3D7_1033100; recombinant bifunctional P. falciparum AdoMetDC/ODC, strep tag
T2 sequence (Q8IJ77 1-72): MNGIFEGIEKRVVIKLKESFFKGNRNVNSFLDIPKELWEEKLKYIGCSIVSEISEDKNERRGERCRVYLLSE
T2 sequence (Q8IJ77 73-1434): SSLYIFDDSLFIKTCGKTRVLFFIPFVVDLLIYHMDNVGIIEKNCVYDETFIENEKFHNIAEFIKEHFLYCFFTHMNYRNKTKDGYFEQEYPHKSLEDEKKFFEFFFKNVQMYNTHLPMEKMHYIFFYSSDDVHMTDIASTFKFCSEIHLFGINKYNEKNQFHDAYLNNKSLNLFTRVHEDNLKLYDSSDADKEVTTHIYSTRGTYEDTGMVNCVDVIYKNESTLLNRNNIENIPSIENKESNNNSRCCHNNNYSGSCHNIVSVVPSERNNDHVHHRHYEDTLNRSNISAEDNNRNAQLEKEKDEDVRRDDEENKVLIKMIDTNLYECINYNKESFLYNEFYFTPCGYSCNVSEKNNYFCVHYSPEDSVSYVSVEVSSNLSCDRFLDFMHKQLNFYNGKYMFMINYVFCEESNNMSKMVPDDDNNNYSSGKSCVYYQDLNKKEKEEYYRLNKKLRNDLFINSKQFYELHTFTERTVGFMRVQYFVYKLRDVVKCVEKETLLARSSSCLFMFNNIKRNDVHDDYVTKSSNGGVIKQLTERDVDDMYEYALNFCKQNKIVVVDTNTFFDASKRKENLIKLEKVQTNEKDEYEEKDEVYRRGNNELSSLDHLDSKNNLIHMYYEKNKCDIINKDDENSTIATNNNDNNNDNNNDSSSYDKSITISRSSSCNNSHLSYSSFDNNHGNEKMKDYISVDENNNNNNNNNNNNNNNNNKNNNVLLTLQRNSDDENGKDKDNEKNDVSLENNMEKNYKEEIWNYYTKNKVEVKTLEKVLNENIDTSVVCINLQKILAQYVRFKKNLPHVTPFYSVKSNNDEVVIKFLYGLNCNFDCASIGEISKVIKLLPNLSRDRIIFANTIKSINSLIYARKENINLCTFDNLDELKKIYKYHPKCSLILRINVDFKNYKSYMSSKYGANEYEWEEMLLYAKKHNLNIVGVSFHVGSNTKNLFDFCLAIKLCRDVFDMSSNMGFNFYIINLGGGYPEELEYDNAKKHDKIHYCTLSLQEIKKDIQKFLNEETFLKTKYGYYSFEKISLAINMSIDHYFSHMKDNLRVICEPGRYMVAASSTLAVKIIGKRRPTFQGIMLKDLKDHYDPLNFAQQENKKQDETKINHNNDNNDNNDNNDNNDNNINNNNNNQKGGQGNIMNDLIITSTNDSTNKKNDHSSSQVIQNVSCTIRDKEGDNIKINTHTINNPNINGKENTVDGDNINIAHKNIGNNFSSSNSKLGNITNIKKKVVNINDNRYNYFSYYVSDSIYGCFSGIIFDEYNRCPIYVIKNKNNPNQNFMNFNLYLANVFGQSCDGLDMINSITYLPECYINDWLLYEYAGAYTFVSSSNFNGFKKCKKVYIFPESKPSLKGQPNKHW

T1 sequence (C6KT01 entry or part of it): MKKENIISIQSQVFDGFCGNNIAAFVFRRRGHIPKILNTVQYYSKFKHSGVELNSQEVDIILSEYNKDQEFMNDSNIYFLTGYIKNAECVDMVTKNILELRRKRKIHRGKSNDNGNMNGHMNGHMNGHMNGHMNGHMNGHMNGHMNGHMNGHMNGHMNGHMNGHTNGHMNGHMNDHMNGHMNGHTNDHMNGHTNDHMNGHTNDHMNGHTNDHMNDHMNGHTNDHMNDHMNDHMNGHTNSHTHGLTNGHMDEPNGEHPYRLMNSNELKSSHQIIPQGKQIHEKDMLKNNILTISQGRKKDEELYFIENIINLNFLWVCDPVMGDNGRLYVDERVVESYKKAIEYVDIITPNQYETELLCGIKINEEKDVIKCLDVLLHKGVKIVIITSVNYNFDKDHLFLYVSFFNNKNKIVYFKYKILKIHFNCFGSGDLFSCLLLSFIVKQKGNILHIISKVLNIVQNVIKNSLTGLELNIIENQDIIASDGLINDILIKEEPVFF

| Compound | Specific activity of PfPdxK (nmol min^-1 mg^-1) ^a) [1] | IC50 [2] |
| --- | --- | --- |
| COC(=O)[C@@H]1Cc2c([nH]c3ccccc23)[C@H](c2c(CO)cnc(C)c2O)N1 [PT3] | 38 ± 4 nmol/min/mg |  |
| COC(=O)C(Cc1c[nH]cn1)NCc1c(COP(=O)(O)O)cnc(C)c1O (centres unmarked) [PPHME] |  | 58 ± 11 µM |
| COC(=O)C(Cc1c[nH]cn1)NCc1c(CO)cnc(C)c1O (centres unmarked) [PHME] | 64 ± 4 nmol/min/mg |  |
| COC(=O)C(Cc1c[nH]c2ccccc12)NCc1c(COP(=O)(O)O)cnc(C)c1O (centres unmarked) [PPT5] |  | 64 ± 13 µM |
| COC(=O)C(Cc1c[nH]c2ccccc12)NCc1c(CO)cnc(C)c1O (centres unmarked) [PT5] | 20 ± 2 nmol/min/mg |  |
